Patent US20110039763A1, “TARGETED ANTIMICROBIAL MOIETIES” (C3 JIAN, INC., priority 2009, published 2011)
“Also recorded” adds a separate entry of the source.

These substances were tested on microorganisms (assay: Targeting peptide binding to target microorganisms (Tables 3, 10, 12)). Details: microorganism(s) the targeting peptide binds; binding in aqueous buffers that varied with peptide solubility, preferably 1x PBS.
In the case of “PF-050 (SYYLKRREEKGK; Peptide with targeting and/or antimicrobial activity)”, the “Target(s)” value is reported as “S. epidermidis; also recorded: M. luteus; also recorded: E. coli; also recorded: C. jeikeium”.
In the case of “1T-195 (AASGFTYCASNGVWHPY; Peptide with targeting and/or antimicrobial activity)”, the “Target(s)” value is reported as “S. mutans”.

Same assay, conditions: microorganism(s) the targeting peptide binds; binding in aqueous buffers varied with peptide solubility, preferably 1x PBS
With “PF-779 (IYGDFFNFYLCDISLKVNGLQPGGPVRTVKLFGQPTGRCTPQ; Peptide with targeting and/or antimicrobial activity)” the “Target(s)” value was “Mycobacteria spp”.
In the case of “PF-463 (MVILVFSLIFIFTDNYLVYQSKSIKEDVMI; Peptide with targeting and/or antimicrobial activity)”, the “Target(s)” value is reported as “S. epidermidis; also recorded: E. coli; also recorded: P. aeruginosa; also recorded: C. albicans; also recorded: S. pneumoniae; also recorded: E. faecalis; also recorded: M. smegmatis”.
With “PF-309 (GIPGMTAAPAEENEQEENADEE; Peptide with targeting and/or antimicrobial activity)” the “Target(s)” value was “S. mutans; also recorded: E. coli”.
With “PF-733 (VISRQMGSEAVLELFIIM; Peptide with targeting and/or antimicrobial activity)” the “Target(s)” value was “S. mutans; also recorded: E. coli”.
“PF-720 (SLDMGK; Peptide with targeting and/or antimicrobial activity)” was tested, and the “Target(s)” value was “S. mutans”.
For “PF-505 (GYTKDPGTGI; Peptide with targeting and/or antimicrobial activity)”, the “Target(s)” value was “S. mutans”.
In the case of “PF-368 (MLKQTA; Peptide with targeting and/or antimicrobial activity)”, the “Target(s)” value is reported as “C. jeikeium; also recorded: C. jejuni”.
In the case of “PF-247 (ETAASETH; Peptide with targeting and/or antimicrobial activity)”, the “Target(s)” value is reported as “S. epidermidis”.
In the case of “PF-731 (RHKLIRLPLSESVFCFLNNPKI; Peptide with targeting and/or antimicrobial activity)”, the “Target(s)” value is reported as “L. pneumophila”.
“PF-237 (YVKPKVGVHE; Peptide with targeting and/or antimicrobial activity)” was tested, and the “Target(s)” value was “S. epidermidis”.
For “PF-364 (LVNGIKI; Peptide with targeting and/or antimicrobial activity)”, the “Target(s)” value was “S. epidermidis; also recorded: B. fragilis; also recorded: P. aeruginosa; also recorded: C. jeikeium; also recorded: C. jejuni”.
“PF-263 (NLKKCPC; Peptide with targeting and/or antimicrobial activity)” was tested, and the “Target(s)” value was “S. epidermidis; also recorded: M. luteus; also recorded: A. baumannii”.
“PF-317 (LILVSDI; Peptide with targeting and/or antimicrobial activity)” was tested, and the “Target(s)” value was “S. mutans”.

Same assay, conditions: peptide binding in aqueous buffers that varied with peptide solubility; preferably 1x PBS
With “1T-38 (VMFVLTRGRSPRPMIPAY; Peptide with targeting and/or antimicrobial activity)” the “Target(s) (microorganism bound by the targeting peptide)” value was “S. mutans; also recorded: S. aereus; also recorded: S. epidermidis; also recorded: C. jeikeium; also recorded: C. xerosis; also recorded: C. striatum; also recorded: P. aeruginosa”.
In the case of “1T-46 (FSFKQRVMFRKEVERLR; Peptide with targeting and/or antimicrobial activity)”, the “Target(s) (microorganism bound by the targeting peptide)” value is reported as “S. aureus; also recorded: S. epidermidis; also recorded: C. jeikeium; also recorded: C. xerosis; also recorded: C. striatum; also recorded: P. aeruginosa”.
With “1T-96 (VAGACAQPFGGQ; Peptide with targeting and/or antimicrobial activity)” the “Target(s) (microorganism bound by the targeting peptide)” value was “S. gordonii; also recorded: S. mitis; also recorded: S. mutans; also recorded: S. oralis; also recorded: S. sanguinis”.
In the case of “1T-77 (EMRISRIILDFLFLRKK; Peptide with targeting and/or antimicrobial activity)”, the “Target(s) (microorganism bound by the targeting peptide)” value is reported as “S. pneumoniae”.
With “1T-26 (LTILPTTFFAIIVPILAVAFIAYSGFKIKGIVEHKDQW; Peptide with targeting and/or antimicrobial activity)” the “Target(s) (microorganism bound by the targeting peptide)” value was “S. mutans; also recorded: S. aureus; also recorded: S. epidermidis; also recorded: C. jeikeium; also recorded: C. xerosis; also recorded: C. striatum; also recorded: P. aeruginosa”.
